# Results as given in patent US11478474B2, “2-(3′-(hydroxymethyl)-1-methyl-5-((5-(2-methyl-4-(oxetan-3-yl)piperazin-1-yl)pyridin-2-yl)amino)-6-oxo-1,6-dihydro-[3,4′-bipyridin]-2′-yl)-7,7-dimethyl-7,8-dihydro-2H-cyclopenta[4,5]pyrrolo[1,2-a]pyrazin-1(6H)-one as a BTK inhibitor” (HUTCHISON MEDIPHARMA LIMITED, priority 2020, dated 2022).
# Tested on: collagen induced arthritis in rats
# Assay: Rat arthritis model induced by type II collagen (CIA), paw volume
# Type: in vivo
# Details: CIA Lewis rats
# Protocol: Example 9 Therapeutic Effect of the Compound of the Present Invention on a Rat Arthritis Model Induced by Type II Collagen
# An appropriate amount of bovine type II collagen (CII, Chondrex (Redmond, Wash., USA), Cat #20021) was weighed and dissolved in 0.1 mole of acetic acid (SPGC Sinopharm Chemical Reagent Co., Ltd (Shanghai, P. R. China), Cat #: 10000218.), which was formulated into a solution with a concentration of 6 mg/mL, stirred at 4° C. overnight, and added with an equal volume of Freund's incomplete adjuvant (Sigma-Aldrich. (St. Louis, Mo., USA), Cat #: SLBW0366.), fully emulsified to prepare an emulsion with a CII concentration of 3 mg/mL.
# Female Lewis rats were purchased from Beijing Vital River Laboratory Animal Technology Co., Ltd (certificate number 1100111911070522, initial body weight of 110-130 grams), and 3 rats were randomly selected as normal group, and the remaining rats were grouped according to the following table. In the first immunization on day 0, the rats except that in the normal group were anesthetized with isoflurane (Hebei Yipin Pharmaceutical Co., Ltd., Lot: C002170601.), and then disinfected with 75% alcohol. 0.2 mL of emulsion was injected intradermally at the base of the tail thereof. A second challenge was carried out on day 7, and 0.2 mL of emulsion was intradermally injected using the same method.
# The paw volume was measured on day 8 after immunization, and the left and right hind paw volumes (V) were measured every day after the paw volume increase was detected.
# The average arthrosis paw volume of each animal before administration was used as the baseline (or considered 100% inhibition of inflammation). The averaged paw swelling (APS) of each animal is calculated according to the following formula, wherein, APVd1 is the average paw volume of the animal administered on day 1, and APVdt is the average paw volume of the animal administered on day t: The averaged paw swelling APSdt=(APVdt−APVd1)
# ED50 is calculated by XLfit software according to the AUC inhibition ratio of the area under the curve of the average paw volume change. The selected model is “log (inhibitor) vs. response−Variable slope”: […]
# [1] = oral QD, from AUC inhibition ratio of average paw volume change
SMILES,inhibition ratio of area under the curve (paw swelling) (0.06 mg/kg QD oral) [%],inhibition ratio of area under the curve (paw swelling) (0.25 mg/kg QD oral) [%],inhibition ratio of area under the curve (paw swelling) (1 mg/kg QD oral) [%],inhibition ratio of area under the curve (paw swelling) (4 mg/kg QD oral) [%],inhibition ratio of area under the curve (paw swelling) (16 mg/kg QD oral) [%],ED50 [1] [mg/kg/day],ED90 [1] [mg/kg],"minimum effective dose (oral QD, paw swelling) [mg/kg/day]","paw volume compared with the vehicle control group (4 mg/kg QD oral, p<0.01)"
C[C@H]1CN(C2COC2)CCN1c1ccc(Nc2cc(-c3ccnc(-n4ccn5c6c(cc5c4=O)CC(C)(C)C6)c3CO)cn(C)c2=O)nc1 [Compound 19],58.8,91.3,95.9,93.2,97.5,< 0.06,0.26,0.06,–
"C[C@H]1CN(C2COC2)CCN1c1ccc(Nc2cc(-c3ccnc(N4CCn5c(cc6c5CC(C)(C)C6)C4=O)c3CO)cn(C)c2=O)nc1 [GDC-0853, fenebrutinib, reference compound]",–,–,–,87.1,–,–,–,–,significantly reduced
